Consider 19 molecules from ChEMBL document CHEMBL5512666, “Selenization of Small Molecule Drugs: A New Player on the Board” (J Med Chem, 2024).

In general, pIC50 refers to the IC50 on a negative log10 scale, so that one unit is a factor of ten. The term MIC denotes the least concentration at which growth counts as inhibited. Broadly, the pEC50 is the negative decadic logarithm of the EC50, by convention in mol/L. For orientation: IC50 means the concentration that inhibits the measured activity by half.

pEC50, pIC50: −log10 of the molar value. ≈ marks a conversion by molar mass, not a printed value.

A short description of data set [1]: Antioxidant activity assessed as inhibition of peroxynitrite mediated L-tyrosine nitration in sodium phosphate buffer at pH 7.5 incubated for 7 mins by RP-HPLC analysis. The class given is functional.
A short description of data set [2]: Antioxidant activity assessed as reduction in peroxynitrite mediated L-tyrosine nitration by measuring remaining activity relative to control. More on the design: concentration or dose not given beside the values. Type of data set: functional.
For a further data set, the system named is MHCC97H. Put plainly: Antiproliferative activity against human MHCC97H cells assessed as reduction in cell viability incubated for 48 hrs by MTT assay. Type of data set: functional, cell-based. (In general: Formazan colour is commonly taken as a measure of viable cells.)
Data set [3] in a line: Inhibition of TrxR (unknown origin) expressed in MHCC97H cells incubated for 24 hrs by colorimetric assay. Type of data set: cell-based, Homo sapiens.
Data set [4] deals with Candida albicans. Description: Antifungal activity against Candida albicans CPCC 400616. Type of data set: functional.
Data set [5] has as its system Candida albicans. Put plainly: Antifungal activity against Candida albicans SC5314. Type of data set: functional.
The subject of the next data set is Cryptococcus neoformans. Description: Antifungal activity against Cryptococcus neoformans CGMCC 2.3161. Type of data set: functional.
The subject of the next data set is Pichia kudriavzevii. Description: Antifungal activity against Candida krusei AS 2.1045. Type of data set: functional.
Another data set has as its system Candida tropicalis. Put plainly: Antifungal activity against Candida tropicalis CGMCC 2.3739. The class given is functional.
A further data set has as its system Nakaseomyces glabratus. Put plainly: Antifungal activity against Candida glabrata. Type of data set: functional.
A further data set relates to Candida parapsilosis. Description: Antifungal activity against Candida parapsilosis 22019. The class given is functional. Conditions: Lodderomyces parapsilosis.
In a further data set the test system is Aspergillus fumigatus. Description: Antifungal activity against Aspergillus fumigatus CGMCC 3.7795. Type of data set: functional.
For another data set, the system named is OVCAR-3. Description: Antiproliferative activity against human OVCAR-3 cells. Type of data set: functional, cell-based.
A short description of data set [6]: Antiproliferative activity against human OVCAR-10 cells. The class given is functional, cell-based.
The next data set concerns ES-2. Description: Antiproliferative activity against human ES2 cells. The class given is functional, cell-based.
Data set [7] is described as follows: Antiproliferative activity against human HEY A8 cells. The class given is functional, cell-based.
In the next data set the test system is HEK-293T. Description: Antiproliferative activity against HEK293T. The class given is functional, cell-based. To be noted: Homo sapiens.
Data set [8] has as its system Candida albicans. Put plainly: Antifungal activity against azole-resistant Candida albicans clinical isolate CaR assessed as fungal growth inhibition incubated for 24 hrs by CLSI protocol based broth microdilution method. Type of data set: functional.
Data set [9] has as its system Candida albicans. Description: Antifungal activity against azole-resistant Candida albicans clinical isolate 17 assessed as fungal growth inhibition incubated for 24 hrs by CLSI protocol based broth microdilution method. Type of data set: functional. In general terms: Dilution methods test growth across graded concentrations, often in twofold steps.
Data set [10] has as its system Candida albicans. Description: Antifungal activity against azole-resistant Candida albicans clinical isolate 632 assessed as fungal growth inhibition incubated for 24 hrs by CLSI protocol based broth microdilution method. Type of data set: functional.
Data set [11] has as its system Candida albicans. Put plainly: Antifungal activity against azole-resistant Candida albicans clinical isolate 901 assessed as fungal growth inhibition incubated for 24 hrs by CLSI protocol based broth microdilution method. The class given is functional.
Data set [12] has as its system Candida albicans. Put plainly: Antifungal activity against azole-resistant Candida albicans clinical isolate 904 assessed as fungal growth inhibition incubated for 24 hrs by CLSI protocol based broth microdilution method. Type of data set: functional.
In the next data set the test system is Human alphaherpesvirus 1. Description: Antiviral activity against HSV-1 infected in African green monkey Vero cells assessed as reduction in virus-induced cytopathic effect incubated for 3 days by MTT assay. Conditions: Human alphaherpesvirus 1, Vero, 72 h. The class given is functional, organism-based.
The next data set relates to Human alphaherpesvirus 2. Put plainly: Antiviral activity against HSV-2 infected in African green monkey Vero cells assessed as reduction in virus-induced cytopathic effect incubated for 3 days by MTT assay. Type of data set: functional, organism-based. To be noted: Human alphaherpesvirus 2, Vero, 72 h.
Another data set relates to Human alphaherpesvirus 3. Description: Antiviral activity against VZV infected in African green monkey Vero cells assessed as reduction in virus-induced cytopathic effect incubated for 3 days by MTT assay. The class given is functional, organism-based. Conditions: Human alphaherpesvirus 3, Vero, 72 h. Background: Damage to the host cells serves as the signal in cytopathic effect assays.

In a further data set the test system is Human betaherpesvirus 5. Put plainly: Antiviral activity against […] infected in African green monkey Vero cells assessed as reduction in virus-induced cytopathic effect incubated for 3 days by MTT assay. Type of data set: functional, organism-based. Conditions: Human betaherpesvirus 5, Vero, 72 h.
The nature of data set [13]: Cytotoxicity against human A549 cells assessed as reduction in cell viability incubated for 96 hrs by MTT assay. Type of data set: toxicity, cell-based.
A short description of data set [14]: Cytotoxicity against human MDA-MB-231 cells assessed as reduction in cell viability incubated for 96 hrs by MTT assay. Type of data set: toxicity, cell-based.
Data set [15] in a line: Cytotoxicity against human SGC cells assessed as reduction in cell viability incubated for 96 hrs by MTT assay. Type of data set: toxicity, cell-based.

For the molecule `COc1cccc(Cn2ccn(C)c2=[Se])c1`, the pIC50 in data set [1] was 5.11.
Turning to `C=C1N(C)C=CN1CCCn1ccn(C)c1=[Se]`, in data set [2], the Activity turned out to be 29%.
Turning to `Cn1cc[nH]c1=[Se]`, in data set [1], the pIC50 was 4.31. Moreover, the Activity in data set [2] worked out at 66%.
As for `C=C1N(C)C=CN1CCCCn1ccn(C)c1=[Se]`, the Activity in [2] was determined as 56%.
On to `Cn1ccn(C)c1=[Se]`, for which the pIC50 in data set [1] was 4.91. In [2], the Activity was found to be 66.5%.
With `CN(C)CCC[Se]c1cnc(-c2cccc(Cn3nc(-c4cccc(C#N)c4)ccc3=O)c2)nc1`, the pIC50 in the data set on MHCC97H was 8.00.
As to `CN1CCC(COc2cnc(-c3cccc(Cn4nc(-c5cccc(C#N)c5)ccc4=O)c3)nc2)CC1` [TEPOTINIB], the figures for the negative logarithm of the IC50 (pIC50) (in the data set with MHCC97H; in [3]) were 7.80 and < 5.00, respectively.
For the molecule `C=C1N(C)C=CN1CCCCCn1ccn(C)c1=[Se]`, the Activity in data set [2] stood at 45%.
As to `Cc1cccc(C)c1[Se]C(Cn1ccnc1)c1ccc(Cl)cc1` (centres undefined), the minimal inhibitory concentration (MIC) worked out at 0.03 µg/mL (≈ 0.077 µM) in the data set on Candida albicans [4]; 0.03 µg/mL (≈ 0.077 µM) in the data set on Candida albicans [5]; 0.13 µg/mL (≈ 0.334 µM) in the data set with Cryptococcus neoformans; 0.03 µg/mL (≈ 0.077 µM) against Pichia kudriavzevii; 0.06 µg/mL (≈ 0.154 µM) against Candida tropicalis; 0.13 µg/mL (≈ 0.334 µM) in the data set with Nakaseomyces glabratus. The minimal inhibitory concentration (MIC) was 0.03 µg/mL (≈ 0.077 µM) against Candida parapsilosis and 1 µg/mL (≈ 2.57 µM) against Aspergillus fumigatus.
Turning to `CN(C)CC[Se]c1cnc(-c2cccc(Cn3nc(-c4cccc(C#N)c4)ccc3=O)c2)nc1`, the pIC50 with MHCC97H is 7.57; in [3], 6.38.
Regarding `O=c1[nH]cc(F)c(=O)[nH]1` [FLUOROURACIL], the pIC50 in the data set with OVCAR-3 is 4.72; in [6] it was 4.58; in the data set with ES-2, 4.59; in [7], 4.32; with HEK-293T, 4.25.
The matching figures for `N#C[Se]CCCOC(=O)CCCC[C@@H]1SC[C@@H]2NC(=O)N[C@@H]21`: < 4.00, < 4.00, 4.04, 4.65 and < 4.00.
Regarding `OC(Cn1cncn1)(Cn1cncn1)c1ccc(F)cc1F` [FLUCONAZOLE], the MIC in the data set on Candida albicans [8] was > 128 µg/mL; in the data set on Candida albicans [9], > 128 µg/mL; in the data set on Candida albicans [10], > 128 µg/mL; in the data set with Candida albicans [11], > 128 µg/mL; in the data set with Candida albicans [12] it was > 128 µg/mL; in the data set with Candida tropicalis, 2 µg/mL (≈ 6.53 µM).
On to `CNC1NC(N)=Nc2c1ncn2C[Se]CCO` (centres undefined), for which the pEC50 with Human alphaherpesvirus 1 is 4.84; with Human alphaherpesvirus 2, 4.75; in the data set on Human alphaherpesvirus 3 it was < 4.00; in the data set with Human betaherpesvirus 5, < 4.00.
`NC1=Nc2c(ncn2C[Se]C(CO)CO)C(NC2CC2)N1` (centres undefined): the pEC50 is < 4.00 in the data set on Human alphaherpesvirus 1, < 4.00 with Human alphaherpesvirus 2, < 4.00 with Human alphaherpesvirus 3 and 4.39 with Human betaherpesvirus 5.
Consider `Clc1ccc(-c2nn[se]c2-n2cncn2)c(Cl)c1`, for which the MIC in the data set on Candida albicans [8] was 4 µg/mL (≈ 11.6 µM); with Candida albicans [9], 4 µg/mL (≈ 11.6 µM); with Candida albicans [10], 16 µg/mL (≈ 46.4 µM); with Candida albicans [11] it was 8 µg/mL (≈ 23.2 µM); in the data set on Candida albicans [12], 32 µg/mL (≈ 92.7 µM). Besides, the values for the IC50 at 96 h in [13], in [14] and in [15] were 16.9 µg/mL (≈ 49.1 µM), 23.5 µg/mL (≈ 68.1 µM) and 19.5 µg/mL (≈ 56.5 µM), respectively.
For `NC1=Nc2c(ncn2C[Se]C(CO)CO)C(N)N1` (centres undefined), the pEC50 with Human alphaherpesvirus 1 is < 4.00; with Human alphaherpesvirus 2, < 4.00; in the data set with Human alphaherpesvirus 3 it was < 4.00; in the data set on Human betaherpesvirus 5, 4.46.
Take `CC[Se]C(=O)CCCC[C@@H]1SC[C@@H]2NC(=O)N[C@@H]21`: the pIC50 in the data set with OVCAR-3 is 4.47; in data set [6], 4.39; in the data set on ES-2, 4.84; in [7], 4.89; in the data set with HEK-293T, 4.41.
On to `N#Cc1cccc(-c2ccc(=O)n(Cc3cccc(-c4ncc([Se]CCCN5CCOCC5)cn4)c3)n2)c1`, for which the pIC50 is 7.54 with MHCC97H and 6.93 in data set [3].
